The results in this text go back to patent US12612384B2, “Heterocyclic CYP4A inhibitor compounds and compositions thereof” (MBD CO., LTD., priority 2021, dated 2026).

As a reminder, the inhibition is how much of the control response was suppressed.

The first assay addresses T1, CYP4A (Homo sapiens, UniProt Q02928).
T1 construct: purchased; host or cells: bacterial membranes ('bactosome')
T1 sequence (Q02928 5-519): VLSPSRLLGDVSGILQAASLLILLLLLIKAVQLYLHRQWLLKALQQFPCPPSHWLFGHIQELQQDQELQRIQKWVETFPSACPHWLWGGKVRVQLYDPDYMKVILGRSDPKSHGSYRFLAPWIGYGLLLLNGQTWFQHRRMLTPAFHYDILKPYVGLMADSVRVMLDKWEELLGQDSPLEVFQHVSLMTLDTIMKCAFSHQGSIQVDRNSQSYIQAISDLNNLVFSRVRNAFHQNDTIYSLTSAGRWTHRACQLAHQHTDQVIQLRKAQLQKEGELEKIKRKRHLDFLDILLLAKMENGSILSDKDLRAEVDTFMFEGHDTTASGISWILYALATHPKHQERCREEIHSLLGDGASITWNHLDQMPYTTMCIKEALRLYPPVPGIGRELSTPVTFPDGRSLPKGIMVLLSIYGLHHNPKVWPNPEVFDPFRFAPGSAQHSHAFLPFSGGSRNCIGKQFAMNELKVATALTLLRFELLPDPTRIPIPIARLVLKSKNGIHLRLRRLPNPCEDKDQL
Briefly: CYP4A enzyme assay (luminescence, Luciferin-ME). It is filed as biochemical. The note with it: Compound concentration 5 μM; 70%-90%; read-out: % Inhibition 70%-90%. The method, then: The CYP4A inhibitory activity of the above compounds of the examples was measured. The reagents used in the experiment were commercially available, and were prepared and used when necessary. The device used for measuring activity was SpectraMax of MOLECULAR DEVICES.
CYP4A bactosome and the compounds to be evaluated (5 μM) were each diluted in assay buffer (100 mM KPO4, 0.1% BSA, 1 mM DTT) and mixed in a 384 well plate (white opaque polystyrene nontreated flat-bottom well), and reaction was carried out at room temperature for 15 minutes. To induce CYP4A reaction, 5 mM Luciferin-ME, NADPH Regeneration system (10× sol. A, 20× sol. B in assay buffer, Cat. Number: V865B, Promega) were sequentially added and mixed, and the reaction was carried out at room temperature for 30 minutes. Then, Luciferin Detection reagent was added thereto and reacted at room temperature for 15 minutes to stop the CYP4A reaction and induce a luminescence reaction. Finally, after measuring the luminescence value using a microplate reader, the inhibition of CYP4A activity by the compounds was evaluated by comparing the luminescence value from each well.
Take `O=C(C1CCN(Cc2ccc([N+](=O)[O-])cc2)C1)N1CCN(c2ccnc3cc(F)ccc23)CC1` (stereo not shown) [Example 53, (4-(7-fluoroquinolin-4-yl)piperazin-1-yl)(1-(4-nitrobenzyl)pyrrolidin-3-yl)methanone]: the inhibition at 5 µM was 70 to 90%.
Take `O=C(C1CCN(S(=O)(=O)c2ccc(Br)cc2)CC1)N1CCN(c2ccnc3cc(F)ccc23)CC1` [Example 56, (1-((4-bromophenyl)sulfonyl)piperidin-4-yl)(4-(7-fluoroquinolin-4-yl)piperazin-1-yl)methanone]: the inhibition at 5 µM lay within 70 to 90%.
For `O=C(C1CCN(S(=O)(=O)c2ccc(Br)cc2)CC1)N1CCN(c2ccnc3ccccc23)CC1` [Example 63, (1-((4-bromophenyl)sulfonyl)piperidin-4-yl)(4-(quinolin-4-yl)piperazin-1-yl)methanone], the inhibition at 5 µM fell in the range of 70 to 90%.

Staying with this assay, now noted: Compound concentration 5 μM; Greater than 90%; read-out: % Inhibition Greater than 90%.
Consider `O=C(C1CCN(S(=O)(=O)c2cccc(F)n2)C1)N1CCN(c2ccnc3ccccc23)CC1` (stereo not shown) [Example 52, (1-((6-fluoropyridin-2-yl)sulfonyl)pyrrolidin-3-yl)(4-(quinolin-4-yl)piperazin-1-yl)methanone], for which the inhibition at 5 µM was greater than 90%.
The same measure, in the same setting: then `O=C(C1CCN(S(=O)(=O)c2ccc([N+](=O)[O-])cc2)CC1)N1CCN(c2ccnc3cc(F)ccc23)CC1` [Example 54, (4-(7-fluoroquinolin-4-yl)piperazin-1-yl)(1-((4-nitrophenyl)sulfonyl)piperidin-4-yl)methanone], with greater than 90%.
On the same count and under the same terms, the value for `CC(=O)Nc1cccc(S(=O)(=O)N2CCC(C(=O)N3CCN(c4ccnc5cc(F)ccc45)CC3)CC2)c1` [Example 55, N-(3-((4-(4-(7-fluoroquinolin-4-yl)piperazine-1-carbonyl)piperidin-1-yl)sulfonyl)phenyl)acetamide] was greater than 90%; that for `O=C(C1CCN(S(=O)(=O)c2ccc(-c3ccncc3)cc2)CC1)N1CCN(c2ccnc3cc(F)ccc23)CC1` [Example 57, (4-(7-fluoroquinolin-4-yl)piperazin-1-yl)(1-((4-(pyridin-4-yl)phenyl)sulfonyl)piperidin-4-yl)methanone] was 0%; that for `O=C(C1CCN(S(=O)(=O)c2ccc(-c3cccnc3)cc2)CC1)N1CCN(c2ccnc3cc(F)ccc23)CC1` [Example 58, (4-(7-fluoroquinolin-4-yl)piperazin-1-yl)(1-((4-(pyridin-3-yl)phenyl)sulfonyl)piperidin-4-yl)methanone] was greater than 90%.
The same measure, in the same setting: the value for `O=C(C1CCCN(S(=O)(=O)c2ccc(Cl)nc2)C1)N1CCN(c2ccnc3cc(F)ccc23)CC1` (stereo not shown) [Example 59, (1-((6-chloropyridin-3-yl)sulfonyl)piperidin-3-yl)(4-(7-fluoroquinolin-4-yl)piperazin-1-yl)methanone] was greater than 90%; that for `CC(=O)Nc1ccc(S(=O)(=O)N2CCCC(C(=O)N3CCN(c4ccnc5cc(F)ccc45)CC3)C2)cn1` (stereo not shown) [Example 60, N-(5-((3-(4-(7-fluoroquinolin-4-yl)piperazine-1-carbonyl)piperidin-1-yl)sulfonyl)pyridin-2-yl)acetamide] was greater than 90%; that for `O=C(C1CCCN(S(=O)(=O)c2ccc(N3CCOCC3)nc2)C1)N1CCN(c2ccnc3cc(F)ccc23)CC1` (stereo not shown) [Example 61, (4-(7-fluoroquinolin-4-yl)piperazin-1-yl)(1-((6-morpholinopyridin-3-yl)sulfonyl)piperidin-3-yl)methanone] was greater than 90%.
`CN1CCN(c2ccc(S(=O)(=O)N3CCCC(C(=O)N4CCN(c5ccnc6cc(F)ccc56)CC4)C3)cn2)CC1` (stereo not shown) [Example 62, (4-(7-fluoroquinolin-4-yl)piperazin-1-yl)(1-((6-(4-methylpiperazin-1-yl)pyridin-3-yl)sulfonyl)piperidin-3-yl)methanone]: the inhibition at 5 µM was greater than 90%.
On the same count and under the same terms, then `O=C(C1CCN(S(=O)(=O)c2ccc(-c3ccncc3)cc2)CC1)N1CCN(c2ccnc3ccccc23)CC1` [Example 64, (1-((4-(pyridin-4-yl)phenyl)sulfonyl)piperidin-4-yl)(4-(quinolin-4-yl)piperazin-1-yl)methanone], with greater than 90%.
